Data set [1] has as its system H4 cells. The data set is described as follows: Electron microscopy of H4 cells. Format: cell-based. As for the experimental part:
FIG. 3 depicts electron microscopy analysis of the effect of MBCQ on autophagy. H4 cells were treated with 0.1% DMSO (vehicle), rapamycin (0.2 μM), MBCQ (10 μM), or MBCQ and rapamycin for 4 h. The cells were processed and imaged by EM.
The ultra-structure of cells treated with rapamycin was determined in the presence or absence of MBCQ. […] Treatment of rapamycin led to the formation of a large numbers of autophagosomes with characteristic double membrane.

For data set [2], the system named is mTOR pathway. In words: Western blotting of mTOR pathway phosphorylation. It is filed as cell-based. The source says:
Since MBCQ inhibits autophagy induced by rapamycin and starvation, it was first determined if MBCQ affects the activity of mTOR. […] Thus, it was concluded that MBCQ has no effect for the mTOR pathway or type I PI3 kinase.
Background: Immunoblotting shows a protein as a band on a membrane.

The subject of data set [3] is major intracellular organelles. The data set is described as follows: Markers of intracellular organelles. Format: cell-based. On the procedure:
The effects of MBCQ on early endosomes using immunostaining of EEA1 as a marker, lysosomes using immunostaining of lamp2 as a marker or lysotracker, trans-Golgi using GalT-YFP as a marker was determined. No effect of MBCQ was detected in any of these experiments.

The subject of data set [4] is LC3. In words: LC3 western blotting in MEF cells. Format: cell-based, mouse. The settings on record: 4 hours, 10 μM, rapamycin 0.2 μM. On the procedure: (§1) FIG. 5 depicts results related to showing that active derivatives of MBCQ reduce the levels of LC3II in MEF cells. […] The cell lysates were collected for western blotting using anti-LC3 antibody. B, Electron microscopy confirmation of the autophagy inhibitory effects of C43 (spautin) on MEF cells. MEF cells were treated with vehicle control (1‰ DMSO), and other indicated compounds for 4 h. Rapamycin (0.2 μM) and C43 (spautin) (10 μM). Then the cells were fixed with glutaraldehyde and prepared the sample for EM assay. Bar, 1:11,000. Arrows indicate double and multi-membrane autophagosomic vesicles. N: nucleus.
To confirm the inhibitory activity on autophagy, mouse embryo fibroblasts (MEF) cells were treated with C29, C43 or C71 for 4 hours in the presence or absence of rapamycin and the levels of autophagy were determined by LC3 western blotting. […] (FIG. 5A).

Data set [5] relates to MEF cells. The data set is described as follows: Electron microscopy of MEF cells. Format: cell-based, mouse. The settings on record: rapamycin (0.2 μM) plus compound, 4 h. On the procedure:
as §1
The effect of C29 and C43 on autophagy was further confirmed by electron microscopy. In rapamycin treated MEF cells, numerous autophagosome vesicles with double membranes were observed, as well as many vesicles with multi-membrane as expected (FIG. 5B).

Data set [6] relates to MDCK cells. The data set is described as follows: MDCK cells under glucose-free condition. It is filed as cell-based, canine. The source says: (§2) Hs578Bst cells, established from normal tissue peripheral to the tumor and is myoepithelial in origin, also were not sensitive to spautin (FIGS. 12C and 12D).
The test system of data set [7] is Hs578Bst cells. The data set is described as follows: Hs578Bst cells. It is filed as cell-based. On the procedure:
A-B, MDCK cells were treated with DMSO (1‰) and spautin at indicated concentration in DMEM with or without glucose for 24 h. […] C-D, Hs578Bst cells were treated with DMSO (1‰) and C43 as indicated concentration in DMEM with or without glucose for 24 h.
as §2

Data set [8] concerns autophagy (LC3) in pancreas. In words: Cerulein induced pancreatitis model in rats. Format: in vivo. The settings on record: 40 mg/kg intraperitoneally hourly for 4 times with cerulein. On the procedure: FIG. 13 depicts results showing the effect of MBCQ and derivatives in vivo. (A) Mice were injected with rapamycin (10 mg/kg) alone as a positive control, or with C43 or MBCQ (40 mg/kg) intraperitoneally every hour for 4 h and then sacrificed at 5 th h. The autophagy levels in liver were analyzed by western blotting using anti-LC3 antibody. (B) C43 reduces the levels of autophagy induced by cerulein. Rats were injected intraperitoneally with cerulein (50 μg/kg) alone or with C43 (40 mg/kg) hourly for 4 times. The rats were sacrificed at one h after the last injection and the pancreas were isolated for western blotting analysis using anti-LC3 and anti-tubulin (as a control).
Since autophagy has been proposed to contribute to the tissue damage in pancreatitis, MBCQ derivatives were tested to see if they could reduce tissue damage induced by cerulein injection, a well-established animal model of pancreatitis (Hashimoto, D., Ohmuraya, M., Hirota, M., Yamamoto, A., Suyama, K., Ida, S., Okumura, Y., Takahashi, E., Kido, H., Araki, K., et al. (2008). Involvement of autophagy in trypsinogen activation within the pancreatic acinar cells. J Cell Biol 181, 1065-1072; and Ohmuraya, M., and Yamamura, K. (2008). Autophagy and acute pancreatitis: a novel autophagy theory for trypsinogen activation. Autophagy 4, 1060-1062). […]

Data set [9] concerns Beclin1. The data set is described as follows: Ubiquitination of Beclin1 in 293T cells. It is filed as cell-based. On the procedure:
FIG. 16 depicts results of experiments showing that spautin promotes the degradation of Beclin1 through proteasomal pathway. […] DMSO (1‰), MBCQ (10 μM), spautin (10 μM), NH4Cl (10 mM), MG132 (5 μM). […] B, 293T cells were transfected with GFP-Beclin1 and HA-Ub expression vectors.
Ubiquitination represents an essential key step in mediating proteasomal degradation. Experiments were therefore run to determine if ubiquitination of Beclin1 is increased in cells treated with C43.

Data set [10] deals with USP10/Beclin1 and USP13/Beclin1 interaction. In words: USP10 or USP13 / GFP-Beclin1 co-immunoprecipitation in 293T cells. Format: cell-based. Conditions: 10 μM, 4 h, with MG132. On the procedure: To further confirm that USP10 and USP13 are the deubiquitinating proteases of Vps34 complexes, the interaction of Flag-USP10/GFP-Beclin1 and Myc-USP13/GFP-Beclin1 in 293T cells was assayed with immunoprecipitation. […] Furthermore, this may provide a mechanism to explain why beclin1 is frequently lost in many kinds of cancers as the loss of beclin1 may lead to a reduction of p53 by inhibiting its deubiquitining proteases.

The subject of data set [11] is USP3, USP10, USP13, USP16, USP18. The data set is described as follows: USP protein levels (western blot).
Procedure: H4 cells were transfected with indicated siRNAs for 72 hrs or treated with rapamycin (0.2 μM) or spautin (10 μM) for 4 hrs, and non-target siRNA (N. T. siRNA) was used as negative control. The cell lysates were harvested and analyzed by western blotting using (Left): antibodies specific for the indicated proteins. Anti-α-tubulin was used as loading controls.
For data set [12], the target named is USP10 and USP13 interaction (Homo sapiens, UniProt Q14694+Q92995). In words: GFP-USP10 / Myc-USP13 co-immunoprecipitation in 293T cells.

Two compounds from patent US20120258975A1, “Potent Small Molecule Inhibitors of Autophagy, and Methods of Use Thereof” (Shanghai Institute of Organic Chemistry, priority 2009, published 2012) can be followed below.

Molecules are shown by their SMILES.

Sequence of USP10 and USP13 interaction (Q14694 whole entry): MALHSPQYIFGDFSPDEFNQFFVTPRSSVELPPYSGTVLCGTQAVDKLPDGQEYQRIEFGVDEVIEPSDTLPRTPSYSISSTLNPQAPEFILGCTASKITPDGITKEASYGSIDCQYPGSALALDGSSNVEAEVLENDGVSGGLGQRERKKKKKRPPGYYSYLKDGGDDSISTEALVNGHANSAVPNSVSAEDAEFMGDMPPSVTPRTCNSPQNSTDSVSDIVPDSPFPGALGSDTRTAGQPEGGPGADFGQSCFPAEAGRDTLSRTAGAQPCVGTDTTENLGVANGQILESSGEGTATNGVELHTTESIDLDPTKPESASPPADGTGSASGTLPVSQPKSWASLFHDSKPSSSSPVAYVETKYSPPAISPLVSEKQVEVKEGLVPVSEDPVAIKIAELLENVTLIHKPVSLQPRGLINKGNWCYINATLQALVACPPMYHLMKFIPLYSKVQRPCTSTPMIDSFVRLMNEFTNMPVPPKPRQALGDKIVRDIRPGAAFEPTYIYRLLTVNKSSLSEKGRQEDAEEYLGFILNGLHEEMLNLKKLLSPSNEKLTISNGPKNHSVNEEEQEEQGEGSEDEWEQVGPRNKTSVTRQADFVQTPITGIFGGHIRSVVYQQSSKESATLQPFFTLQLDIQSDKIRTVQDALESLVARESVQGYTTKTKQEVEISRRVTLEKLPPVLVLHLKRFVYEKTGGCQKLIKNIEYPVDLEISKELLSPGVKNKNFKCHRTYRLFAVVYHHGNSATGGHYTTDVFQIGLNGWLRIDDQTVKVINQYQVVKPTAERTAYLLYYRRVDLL
Sequence of USP10 and USP13 interaction (Q92995 whole entry): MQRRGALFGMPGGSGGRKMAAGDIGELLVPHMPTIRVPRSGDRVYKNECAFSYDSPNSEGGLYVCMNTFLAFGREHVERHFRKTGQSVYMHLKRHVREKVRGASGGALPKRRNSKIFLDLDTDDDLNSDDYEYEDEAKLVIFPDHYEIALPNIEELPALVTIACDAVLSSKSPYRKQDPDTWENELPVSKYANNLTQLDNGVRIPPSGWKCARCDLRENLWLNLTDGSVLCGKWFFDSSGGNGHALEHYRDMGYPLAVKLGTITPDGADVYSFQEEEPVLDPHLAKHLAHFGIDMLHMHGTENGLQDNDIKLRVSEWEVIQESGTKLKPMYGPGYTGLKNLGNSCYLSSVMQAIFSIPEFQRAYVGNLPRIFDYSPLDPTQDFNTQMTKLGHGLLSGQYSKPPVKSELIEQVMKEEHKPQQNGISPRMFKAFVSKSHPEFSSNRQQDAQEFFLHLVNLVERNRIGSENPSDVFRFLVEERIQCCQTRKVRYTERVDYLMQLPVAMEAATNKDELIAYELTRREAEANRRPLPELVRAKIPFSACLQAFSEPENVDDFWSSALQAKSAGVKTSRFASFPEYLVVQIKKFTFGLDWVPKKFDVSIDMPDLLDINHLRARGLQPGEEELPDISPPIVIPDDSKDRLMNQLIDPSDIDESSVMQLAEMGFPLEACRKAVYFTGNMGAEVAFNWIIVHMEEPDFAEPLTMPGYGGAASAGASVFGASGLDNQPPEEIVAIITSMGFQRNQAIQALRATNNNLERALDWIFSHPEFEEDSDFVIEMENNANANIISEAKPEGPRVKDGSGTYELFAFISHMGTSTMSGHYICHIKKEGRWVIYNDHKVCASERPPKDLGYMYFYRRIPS

For the compound `Clc1ccc2ncnc(NCc3ccc4c(c3)OCO4)c2c1` [MBCQ], in data set [1] (MBCQ alone for 4 h), the cell morphology entry is “morphologically similar to that control”. In addition, in [1] (rapamycin (0.2 μM) and MBCQ (10 μM) together, 4 h), the double membrane autophagosomes entry is “conspicuously absent”. Also, in data set [2], the “phosphorylation of GSK-3α/β, AKT” value is recorded as “Nor does MBCQ have any effect”. In addition, the “phosphorylation of mTOR and its targets, p70S6K and S6” value in data set [2] (control or rapamycin treated cells) was “no effect on the phosphorylation of mTOR and its targets”. In [3], the “early endosomes (EEA1), lysosomes (lamp2, lysotracker), trans-Golgi (GalT-YFP)” value is on record as “No effect”.
As for `Fc1ccc(CNc2ncnc3ccc(F)cc23)cc1` [C43, 6-fluoro-N-(4-fluorobenzyl)quinazolin-4-amine], the “autophagy induced by rapamycin (LC3 western blotting)” value in [4] is given as “inhibited autophagy induced by rapamycin”. In addition, in [5], the autophagosomes entry is recorded as “autophagosomes are largely absent”. Also, in data set [6], the apoptosis result is “did not induce apoptosis”. Also, the growth suppression in data set [6] (10 μM of spautin for 48 hrs) is on record as around 25%. In data set [7], the “sensitivity of cells to compound” value is reported as “not sensitive”. Besides, in [8], the “levels of autophagy induced by cerulein injection (pancreas)” value is listed as “significantly reduced the levels of autophagy”. The “ubiquitination of Beclin1” value in data set [9] is recorded as “promoted the ubiquitination of Beclin1”. The “interaction of Flag-USP10 with GFP-Beclin1” value in data set [10] is listed as “impair the interaction”. In addition, in data set [11] (293T cells and Bcap-37 cells), the “levels of USP13 and USP10” value was “reduce the levels of USP13 and USP10”; the “levels of USP44” value is recorded as “little effect”. For the same compound, the “levels of USP3, USP10, USP13, USP16 and USP18” value in data set [11] (H4 cells, 10 μM, 4 hrs) was “reduced the levels of these five USPs”. For the same compound, the “GFP-USP10 and Myc-USP13 interaction” value in data set [12] is “the interaction was inhibited”.
